Test results published in paper PMC3560935 (Anesthesiology, 2011).
“Also recorded” adds a separate entry of the source.

Key:
[1] = administered intracerebroventricularly; cited from earlier work
Swiss-Webster mice [2] = conditions: mouse, in vivo
[3] = biological target: human nociceptin receptor (Homo sapiens, UniProt P41146); format: binding
Swiss-Webster mice [4] = conditions: mouse, in vivo; remark: listed apart in the source
[5] = mouse, in vivo
Swiss-Webster mice [6] = conditions: mouse, in vivo; remark: listed apart in the source

Chain of human nociceptin receptor (P41146 whole entry): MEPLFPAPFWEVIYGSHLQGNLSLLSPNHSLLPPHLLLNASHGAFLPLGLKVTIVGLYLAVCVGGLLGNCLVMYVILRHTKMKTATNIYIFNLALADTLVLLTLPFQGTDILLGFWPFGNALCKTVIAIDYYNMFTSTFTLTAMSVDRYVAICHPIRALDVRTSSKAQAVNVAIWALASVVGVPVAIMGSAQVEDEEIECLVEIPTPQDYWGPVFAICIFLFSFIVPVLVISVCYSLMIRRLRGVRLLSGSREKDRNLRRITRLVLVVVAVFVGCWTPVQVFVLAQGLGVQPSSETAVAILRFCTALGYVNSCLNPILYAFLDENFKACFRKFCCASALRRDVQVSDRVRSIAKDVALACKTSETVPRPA

CN1CC[C@]23c4c5ccc(O)c4O[C@H]2[C@@H](O[C@@H]2O[C@H](C(=O)O)[C@@H](O)[C@H](O)[C@H]2O)C=C[C@H]3[C@H]1C5 [Morphine-6-glucuronide]
potency relative to morphine [1]: 300 times

Buprenorphine
dose with the greatest analgesic response (Swiss-Webster mice [2]): 0.3 mg/kg
time to onset of antinociception (Swiss-Webster mice [2]): 30 min
time to peak antinociceptive effect (Swiss-Webster mice [2]): 45 min
affinity for the nociceptin receptor (in words) [3]: low affinity

CO[C@]12CC[C@@]3(C[C@@H]1[C@](C)(O)C(C)(C)C)[C@H]1Cc4ccc(O[C@@H]5O[C@H](C(=O)O)[C@@H](O)[C@H](O)[C@H]5O)c5c4[C@@]3(CCN1CC1CC1)[C@H]2O5 [Buprenorphine-3-glucuronide, buprenorphine-3-glucuronide]
effect on minute ventilation (in words) (Swiss-Webster mice [4]): Neither buprenorphine nor B3G affected
effect on respiratory rate (in words) (Swiss-Webster mice [4]): Neither B3G nor N3G had a significant effect
Concentration, Brain Homogenate [5]: 1.4 ± 0.7 ng/mL
Concentration, Plasma [5]: 133 ± 44 ng/mL
antinociceptive effect (in words) (Swiss-Webster mice [2]): small antinociceptive effect; also recorded: mild antinociceptive activity
total locomotor activity compared to control / sedation (in words) (Swiss-Webster mice [6]): did not cause a decrease
Ki ([3]; read-out: apparent Ki, Nociceptin): 36 ± 0.3 µM
